The results in this text go back to PubChem BioAssay (NCI).

Some test systems named below: UACC-62 melanoma; NCI-H460 lung; T-47D breast; NCI-H23 lung; PC-3 prostate; CAKI-1 renal; U251 CNS; K-562 leukemia; HT29 colon.
Holding throughout (assay): DTP human tumour cell line panel, 48 h

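A five-concentration, 48-hour dose response in 96-well plates underlies each endpoint, interpolated linearly between surrounding concentrations. Abbreviation: GI50, concentration required for 50% inhibition of growth. TGI: concentration producing complete growth inhibition.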 A value given as a limit tells only on which side of the number the result lay.

A word on the GI50: it is the concentration that inhibits growth by half. What is called TGI is the concentration at which net growth stops. The low end stands for more potent growth arrest, the high end for less potent growth arrest. Regarding `O=C1C(Nc2cccc(O)c2)=C(Sc2ccc(Cl)cc2)C(=O)N1Cc1ccccc1`, the GI50 in the test with UACC-62 melanoma was 10.4 µM; in the test on NCI-H460 lung, 5.61 µM; with T-47D breast, 29.1 µM; with NCI-H23 lung it was 6.77 µM; with PC-3 prostate it was 4.66 µM; in the test with CAKI-1 renal it was 18.6 µM. For the same compound, the GI50 is 10.3 µM in the test with U251 CNS and 3.81 µM with K-562 leukemia. Also, the TGI in the test with UACC-62 melanoma was 27.2 µM; in the test on NCI-H460 lung, > 100 µM; in the test with T-47D breast, > 100 µM; in the test with NCI-H23 lung, 37.5 µM; with PC-3 prostate, 24.7 µM; in the test with CAKI-1 renal, 38.9 µM. Further, the TGI is 29.4 µM in the test on U251 CNS and 29.6 µM in the test with K-562 leukemia.
Consider `O/N=C1/C(=C/c2ccccc2)CCCC1C(NO)c1ccccc1` (configuration not stated), for which the TGI with UACC-62 melanoma, in the test on NCI-H460 lung, in the test on NCI-H23 lung, with HT29 colon and in the test with K-562 leukemia was > 100 µM in each case.
With `COc1ccc(Cn2c3c(c4c(O)cccc42)C(=O)c2ccccc2-3)cc1`, the GI50 was 14.5 µM in the test on UACC-62 melanoma; 12.8 µM with NCI-H460 lung; 11 µM with T-47D breast; 9.24 µM in the test with NCI-H23 lung; 12.8 µM in the test with PC-3 prostate; 14.9 µM with CAKI-1 renal. Besides, the GI50 in the test with HT29 colon was 16 µM; in the test on U251 CNS, 14.1 µM; in the test on K-562 leukemia, 24.3 µM. Besides, the TGI with UACC-62 melanoma turned out to be 30.1 µM; in the test on NCI-H460 lung, 36.5 µM; in the test on T-47D breast it was 37.9 µM; in the test on NCI-H23 lung it was 22 µM; with PC-3 prostate it was 25.4 µM; in the test on CAKI-1 renal, 29.6 µM. Besides, the total growth inhibition concentration (TGI) in the test on HT29 colon is 38.5 µM; in the test on U251 CNS, 27.1 µM; in the test on K-562 leukemia it was > 100 µM.
For the compound `C[n+]1ccc2[nH]c3ccccc3c2c1`, the TGI with UACC-62 melanoma, in the test on NCI-H460 lung, in the test on NCI-H23 lung, in the test on CAKI-1 renal, in the test on HT29 colon and with U251 CNS was > 100 µM in each case. In addition, the TGI in the test on K-562 leukemia was > 100 µM.
With `Oc1oc(-c2ccccc2)nc1/C=C1/C=NN=N1`, the concentration for total growth inhibition (TGI) in the test with UACC-62 melanoma, in the test with NCI-H460 lung, with T-47D breast, in the test with NCI-H23 lung, with PC-3 prostate and with CAKI-1 renal was > 100 µM in each case. The TGI with HT29 colon, in the test with U251 CNS and with K-562 leukemia was > 100 µM in each case.
Consider `CC(C)[C@H](O)C(=O)N[C@H]1Cc2ccc3c(c2)[C@]24C5=C(N=C(O5)[C@H](C(C)C)NC1=O)c1nc(Cl)c(o1)-c1c(Cl)[nH]c5cccc(c15)-c1cccc2c1N[C@H]4O3`, for which the GI50 in the test with NCI-H460 lung is < 0.001 µM; in the test on NCI-H23 lung, < 0.001 µM; in the test with PC-3 prostate, < 0.001 µM; in the test on CAKI-1 renal, 0.00468 µM; in the test on HT29 colon it was < 0.001 µM; in the test on U251 CNS it was < 0.001 µM. The GI50 in the test with K-562 leukemia is < 0.001 µM. For the same compound, the TGI with NCI-H460 lung is 1.21 µM; in the test with T-47D breast it was > 10 µM; in the test on NCI-H23 lung, 3.82 µM; with PC-3 prostate, > 10 µM; with CAKI-1 renal it was 3.29 µM; in the test with HT29 colon it was 0.183 µM. Besides, the concentration for total growth inhibition (TGI) in the test with K-562 leukemia was > 10 µM.
Turning to `CN(/C(=N\O)c1ccccc1)c1ccccc1`, the TGI in the test on NCI-H460 lung was > 100 µM; in the test with NCI-H23 lung it was 61.2 µM; with CAKI-1 renal, > 100 µM; in the test on HT29 colon, 87.5 µM; in the test with U251 CNS, 37.6 µM.
Regarding `N=C(N)Cn1cnc2ccccc21`, the TGI in the test with UACC-62 melanoma, in the test on NCI-H460 lung, in the test with NCI-H23 lung, with U251 CNS and in the test with K-562 leukemia was > 100 µM in each case.
On to `CN(C(=O)C1CC1)C1C2CN3CCC(O2)C13` (configuration not stated), for which the TGI in the test on UACC-62 melanoma, with NCI-H460 lung, in the test on NCI-H23 lung, in the test on CAKI-1 renal, in the test with HT29 colon and with U251 CNS was > 100 µM in each case. Further, in the test on K-562 leukemia, the concentration for total growth inhibition (TGI) is > 100 µM.
In the case of `CCC[CH2][Sn]1([CH2]CCC)[O]CC([CH2][Sn]([c]2ccccc2)([c]2ccccc2)[c]2ccccc2)[O]1` (configuration not stated), the GI50 with UACC-62 melanoma was 10.6 µM; in the test on U251 CNS it was 6.5 µM; in the test on K-562 leukemia it was 2.98 µM. In addition, the TGI in the test with UACC-62 melanoma stood at 22.6 µM; in the test on U251 CNS, 19.9 µM; with K-562 leukemia, 13.6 µM.
Take `CC(=O)[CH-]C(=O)c1ccccc1.CC(=O)[CH-]C(=O)c1ccccc1.CC[O-].O=C1C=C([O-])C(=O)c2ccccc21.[Ti+4]`: the GI50 in the test with UACC-62 melanoma is 38.8 µM; with NCI-H460 lung, 71.9 µM; in the test on NCI-H23 lung, 10.8 µM; in the test on CAKI-1 renal it was > 100 µM; in the test on HT29 colon, 41 µM; in the test on U251 CNS, 32.4 µM. The GI50 in the test with K-562 leukemia was > 100 µM. Moreover, the TGI in the test with UACC-62 melanoma, with NCI-H460 lung, in the test on NCI-H23 lung, with CAKI-1 renal, in the test on HT29 colon and in the test on U251 CNS was > 100 µM throughout. In addition, the TGI in the test on K-562 leukemia is > 100 µM.
Take `CCCCCC/C=C/CCCCCCCc1cccc(O)c1C(=O)O`: the TGI is > 100 µM with UACC-62 melanoma; > 100 µM with NCI-H460 lung; > 100 µM with NCI-H23 lung; > 100 µM in the test on CAKI-1 renal; > 100 µM in the test with HT29 colon; 88.2 µM with U251 CNS. Further, the TGI in the test on K-562 leukemia was > 100 µM.
With `NC(=O)N/N=C1/CCCC/C1=C\c1ccccc1`, the concentration for total growth inhibition (TGI) in the test with UACC-62 melanoma, with NCI-H460 lung, in the test with NCI-H23 lung, with CAKI-1 renal, in the test on HT29 colon and in the test with U251 CNS was > 100 µM each time. In addition, the total growth inhibition concentration (TGI) with K-562 leukemia was > 100 µM.
For the compound `Cn1c(=O)c2[nH]cnc2n(CC(=O)O)c1=O`, the TGI in the test on UACC-62 melanoma, with NCI-H460 lung, in the test on NCI-H23 lung, in the test with CAKI-1 renal, with HT29 colon and with U251 CNS was > 100 µM each time. In addition, in the test on K-562 leukemia, the total growth inhibition concentration (TGI) is > 100 µM.
